{
  "source": "patent US20220153786A1",
  "about": "“PEPTIDES FOR PREVENTING BIOFILM FORMATION” (priority 2019, published 2022)",
  "key": {"[1]": {"tested_on": "Staphylococcus epidermidis RP62A (ATCC 35984) biofilm", "assay": "Biofilm formation inhibition, crystal violet in 96-well PVC microtiter plates", "assay_type": "cell-based", "conditions": "biofilm formation control = 100%", "description": "Biofilm formation. […] Biofilm inhibition: a protocol adapted from Zimmer et al. (2013) Environmental Microbiology 15:2008-2018 and Trentin et al. (2015) Scientific Reports 5:8287, employing crystal violet in 96-well poly(vinyl chloride) microtiter plates (Falcon; Becton Dickinson Labware, Oxnard, Calif.) was used. Briefly, 100 μL of the bacterial suspension, 100 μL of the peptide solution (at different concentrations) or vehicle (to controls) and 50 μL of tryptone soya broth (TSB, Oxoid Ltd., England). Following 37° C. for 1, 4 or 24 h of incubation, the content of the wells was removed and the wells were washed three times with sterile saline. The remaining contents were heat-fixed at 60° C. for 1 h. The adherent biofilm layer formed was stained with 0.4% crystal violet for 15 min at room temperature and then washed three times with distilled water. The stain bound to the cells was solubilized with absolute ethanol (Sigma-Aldrich Co., USA) and absorbance was measured at 570 nm (Powerwave™ XS Plate Reader, BIO-TEK Instruments®, Inc.). The biofilm formation controls represent 100% of biofilm formation. Biofilm eradication: biofilm was pre-formed as described before, during 24 h at 37° C., without treatment. After biofilm formation, the wells were washed to remove the planktonic cells and the peptides solutions and controls were added and incubated for 24 h. The eradication was verified by evaluating the remaining content by crystal violet.\nBiofilm formation inhibition: A protocol adapted from Trentin et al. (2015) Scientific Reports 5 was used, with crystal violet in 96-well BD Falcon polyvinyl chloride (PVC) microtiter plates. The cell-bound stains were solubilized with absolute ethanol (Sigma-Aldrich), and absorbance was measured at 570 nm using a BIO-TEK PowerWave XS plate reader. The biofilm formation control represents 100% of biofilm formation."}, "[2]": {"tested_on": "Staphylococcus epidermidis ATCC 35984", "assay": "Bacterial growth assay, microtiter plates OD600", "assay_type": "cell-based", "conditions": "untreated growth control = 100%", "description": "Bacterial growth assays. Microtiter plates: bacterial growth was evaluated by difference between the optical density absorbance at 600 nm measured at the end and the beginning of the incubation time (37° C., 1, 4 or 24 h) in 96-well poly(vinyl chloride) microtiter plates. Rifampicin 16 μg/mL (Sigma-Aldrich Co., USA) was used as a control for bacterial growth inhibition. Colony-forming units (CFU/mL): after incubation (37° C., 24 h) the CFU was calculated to determine bactericidal effect of peptide solution. Untreated growth control was considered 100% of planktonic cells. All assays were at least performed as technical and biological triplicates.\nMicrotiter plates: Bacterial growth was evaluated by comparing OD600 values at the start and end of incubation in 96-well PVC microtiter plates."}, "[3]": {"conditions": "positive control, concentration 780 (μM)"}},
  "data": [
    {"compound": "CO[C@H]1/C=C/O[C@@]2(C)Oc3c(C)c(O)c4c(O)c(c(/C=N/N5CCN(C)CC5)c(O)c4c3C2=O)NC(=O)/C(C)=C\\C=C\\[C@H](C)[C@H](O)[C@@H](C)[C@@H](O)[C@@H](C)[C@H](OC(C)=O)[C@@H]1C", "note": "[Rifampicin, reference compound]", "values": [
      {"measurement": "Remanescent biofilm (%)", "setting": "[1]; [3]", "value": 9.7, "unit": "%"},
      {"measurement": "Growth (%)", "setting": "[2]; [3]", "value": 28.7, "unit": "%"}
    ]},
    {"compound": "IQQAQQLS (P3y)", "values": [
      {"measurement": "Remanescent biofilm (%)", "setting": "[1]; peptide concentration 10 μM", "value": 6.2, "unit": "%"},
      {"measurement": "Growth (%)", "setting": "[2]; peptide concentration 10 μM", "value": 172.0, "unit": "%"}
    ]},
    {"compound": "RSCQQQ (P3x)", "values": [
      {"measurement": "Remanescent biofilm (%)", "setting": "[1]; peptide concentration 100 μM", "value": 34.4, "unit": "%"},
      {"measurement": "Growth (%)", "setting": "[2]; peptide concentration 100 μM", "value": 91.9, "unit": "%"}
    ]},
    {"compound": "RSCQQQIQQAQQ (P3a)", "values": [
      {"measurement": "Remanescent biofilm (%)", "setting": "[1]; peptide concentration 100 μM", "value": 61.5, "unit": "%"},
      {"measurement": "Growth (%)", "setting": "[2]; peptide concentration 100 μM", "value": 89.9, "unit": "%"}
    ]},
    {"compound": "RSCQQQIQQAQQLSSCQQYLKQRVQSEEGEDQISQRE (P31) [synthetic peptide derived from 2S sulfur-rich seed storage protein 2-like of Capsicum baccatum]", "values": [
      {"measurement": "Remanescent biofilm (%)", "setting": "[1]; peptide concentration 400 μM", "value": 8.3, "unit": "%"},
      {"measurement": "Growth (%)", "setting": "[2]; peptide concentration 400 μM", "value": 88.6, "unit": "%"}
    ]},
    {"compound": "RVQSEEGEDQISQRE (P1)", "values": [
      {"measurement": "Remanescent biofilm (%)", "setting": "[1]; peptide concentration 100 μM", "value": 64.9, "unit": "%"},
      {"measurement": "Growth (%)", "setting": "[2]; peptide concentration 100 μM", "value": 123.2, "unit": "%"}
    ]},
    {"compound": "SCQQYLKQ (P3z)", "values": [
      {"measurement": "Remanescent biofilm (%)", "setting": "[1]; peptide concentration 100 μM", "value": 46.3, "unit": "%"},
      {"measurement": "Growth (%)", "setting": "[2]; peptide concentration 100 μM", "value": 169.9, "unit": "%"}
    ]}
  ]
}
